Source: the supplement of paper PMC10920090

Experiments:
[1] = tested on: MDA-MB-231; assay: drug sensitivity score (DSS), cell viability CellTiter-Glo; higher = more sensitive; extreme values may be limits of the assay; details: 72 h
[2] = tested on: MDA-MB-231; assay: drug sensitivity score (DSS), cytotoxicity CellTox Green; higher = more cytotoxic; extreme values may be limits of the assay; details: 72 h
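For drug sensitivity score (DSS), cytotoxicity CellTox Green in this document: DSS summarises each dose–response curve by combining IC50, EC50, maximal inhibition and efficacy across drug concentrations.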

Row | SMILES | drug sensitivity score ([1]; shRNA: shPPFIA1_1) | drug sensitivity score ([1]; shRNA: shScramble) | drug sensitivity score ([2]; shRNA: shPPFIA1_1) | drug sensitivity score ([2]; shRNA: shScramble)
1 | S=P(N1CC1)(N1CC1)N1CC1 [Thio-TEPA] | 0.9 DSS | 0.9 DSS | 0 DSS | 0 DSS
2 | Oc1c2ccccc2c2c3c(cccc13)N=N2 | 0 DSS | 0.5 DSS | 0 DSS | 0 DSS
3 | O=c1sn(-c2cccc3ccccc23)c(=O)n1Cc1ccccc1 [Tideglusib] | 0 DSS | 0 DSS | 0 DSS | 0 DSS
4 | N#Cc1ccc(C(c2ccc(C#N)cc2)n2cncn2)cc1 [Letrozole] | 0 DSS | 0 DSS | 0 DSS | 0 DSS
5 | CC(C)C[C@H](NC(=O)[C@H](CCc1ccccc1)NC(=O)CN1CCOCC1)C(=O)N[C@@H](Cc1ccccc1)C(=O)N[C@@H](CC(C)C)C(=O)[C@@]1(C)CO1 [Carfilzomib] | 16.5 DSS | 21.4 DSS | 21.9 DSS | 22.1 DSS
6 | Cc1cc(C(C)Nc2ccccc2)c2nc(N3CCOCC3)cc(=O)n2c1 (configuration not stated) [TGX-221] | 0 DSS | 3.2 DSS | 0.6 DSS | 0 DSS
7 | CCC(C)n1ncn(-c2ccc(N3CCN(c4ccc(OCC5COC(Cn6cncn6)(c6ccc(Cl)cc6Cl)O5)cc4)CC3)cc2)c1=O (configuration not stated) [Itraconazole] | 4.8 DSS | 5.6 DSS | 0 DSS | 0 DSS
8 | Cc1nc(N)sc1-c1ccnc(Nc2ccc(N3CCOCC3)cc2)n1 [CYC-116] | 0.2 DSS | 4.8 DSS | 0 DSS | 0 DSS
9 | S=c1[nH]cnc2nc[nH]c12 [Mercaptopurine] | 5.1 DSS | 12 DSS | 0 DSS | 0 DSS
10 | C=CC(=O)Nc1cc2c(Nc3ccc(F)c(Cl)c3)ncnc2cc1OCCCN1CCOCC1 [Canertinib] | 2.8 DSS | 4.3 DSS | 3 DSS | 7.7 DSS
11 | Cc1cc(-c2nc(-c3ccc(OC(F)(F)F)cc3)no2)nn1Cc1ccnc(N2CCN(C3CC3)CC2)c1 [BAY 87-2243] | 14.7 DSS | 13 DSS | 0 DSS | 0 DSS
12 | C[C@]12C=CC(=O)C=C1CC[C@@H]1[C@@H]2C(=O)C[C@@]2(C)[C@H]1CC[C@]2(O)C(=O)CO [Prednisone] | 0 DSS | 0 DSS | 0 DSS | 0 DSS
13 | CC1(C)CCC(CN2CCN(c3ccc(C(=O)NS(=O)(=O)c4ccc(NCC5CCOCC5)c([N+](=O)[O-])c4)c(Oc4cnc5[nH]ccc5c4)c3)CC2)=C(c2ccc(Cl)cc2)C1 [Venetoclax] | 0 DSS | 0 DSS | 0 DSS | 0 DSS
14 | CNC(=O)c1ccc(C)c(-n2c(C)cc(OCc3ccc(F)cc3F)c(Br)c2=O)c1 | 0 DSS | 0 DSS | 0 DSS | 0 DSS
15 | C1=N/C2=N/c3ccc(OCCN4CCCC4)c(c3)COC/C=C/COCc3cccc(c3)C(=C1)N2 [Pacritinib] | 2.4 DSS | 6.2 DSS | 1.6 DSS | 0.6 DSS
16 | Nc1cccc2c1CN(C1CCC(=O)NC1=O)C2=O (configuration not stated) [Lenalidomide] | 0 DSS | 0 DSS | 0 DSS | 0 DSS
17 | COc1cc(F)c(F)c(Nc2ccc(I)cc2F)c1NS(=O)(=O)C1(C[C@H](O)CO)CC1 [Refametinib] | 6 DSS | 10.6 DSS | 10.5 DSS | 18.6 DSS
18 | COc1cc(Br)c(Nc2nc(-c3c(C)nc4ncccn34)cs2)c(Br)c1 [PTC-209] | 0 DSS | 7.5 DSS | 0 DSS | 0 DSS
19 | O=C(O)CCCCC(CCSCc1ccccc1)SCc1ccccc1 (configuration not stated) [CPI-613] | 0 DSS | 0 DSS | 0 DSS | 0 DSS

Row | SMILES | drug sensitivity score ([1]; shRNA: shPPFIA1_1) | drug sensitivity score ([1]; shRNA: shScramble) | drug sensitivity score ([2]; shRNA: shPPFIA1_1) | drug sensitivity score ([2]; shRNA: shScramble)
20 | CNc1nc(-c2ccc3c(N)n[nH]c3c2)cc(N2C[C@@H](C(=O)NC3CCCCC3)CC[C@H]2C)n1 | 0 DSS | 3.6 DSS | 0 DSS | 0 DSS
21 | CNNCc1ccc(C(=O)NC(C)C)cc1 [Procarbazine] | 0 DSS | 0 DSS | 0 DSS | 0 DSS
22 | Cn1cnc2c(F)c(Nc3ccc(Br)cc3Cl)c(C(=O)NOCCO)cc21 [Selumetinib] | 0.3 DSS | 5.2 DSS | 3.8 DSS | 8 DSS
23 | CCn1c(=O)c(-c2ccc(Cl)cc2Cl)cc2cnc(Nc3ccc(N4CCNCC4)c(F)c3)nc21 [FRAX486] | 0 DSS | 2.8 DSS | 0 DSS | 0 DSS
24 | CCN(CC)CCNC(=O)c1c(C)[nH]c(/C=C2\C(=O)Nc3ccc(F)cc32)c1C [Sunitinib] | 0 DSS | 1.1 DSS | 0 DSS | 0 DSS
25 | COc1cc2/c(=N/c3ccc(Br)cc3F)nc[nH]c2cc1OCC1CCN(C)CC1 [Vandetanib] | 3.6 DSS | 0 DSS | 0 DSS | 2 DSS
26 | CCN(CC)CCCC(C)Nc1ccnc2cc(Cl)ccc12 (configuration not stated) [Chloroquine] | 8.7 DSS | 9.4 DSS | 5.2 DSS | 7.2 DSS
27 | COc1cc2c(cc1-c1c(C)noc1C)ncc1[nH]c(=O)n([C@H](C)c3ccccn3)c12 [I-BET151] | 0 DSS | 6.1 DSS | 0 DSS | 0 DSS
28 | O=C(Nc1ccc(-c2ccnc(Nc3ccc(N4CCOCC4)cc3)n2)cc1)C1CCCN1 (configuration not stated) [XL019] | 0 DSS | 0.6 DSS | 0 DSS | 0 DSS
29 | C[C@@H](C(=O)O)c1ccc(-c2ccccc2)c(F)c1 [Tarenflurbil] | 0 DSS | 0 DSS | 0 DSS | 0 DSS
30 | Nc1ncn([C@@H]2O[C@H](CO)[C@@H](O)[C@H]2O)c(=O)n1 [Azacitidine] | 0 DSS | 1.1 DSS | 0 DSS | 0 DSS
31 | CO[C@H]1/C=C\C=C(/C)C(=O)NC2=CC(=O)C(NCCN(C)C)=C(C[C@@H](C)C[C@H](OC)[C@H](O)[C@@H](C)/C=C(\C)[C@@H]1OC(N)=O)C2=O [Alvespimycin] | 4.8 DSS | 7.2 DSS | 0 DSS | 0.6 DSS
32 | Cc1cc(-c2ncc(-c3cccnc3)cc2/C=C/c2ccccc2)cnc1-c1cccnc1 [Pyridoclax] | 1.9 DSS | 5.9 DSS | 0.3 DSS | 0 DSS
33 | CC[C@]1(O)C[C@H]2CN(CCc3c([nH]c4ccccc34)[C@@](C(=O)OC)(c3cc4c(cc3OC)N(C=O)[C@H]3[C@@](O)(C(=O)OC)[C@H](OC(C)=O)[C@]5(CC)C=CCN6CC[C@]43[C@@H]65)C2)C1 [Vincristine] | 0 DSS | 8.1 DSS | 4.9 DSS | 6 DSS
34 | Cn1ncnc1[C@H]1c2n[nH]c(=O)c3cc(F)cc(c23)N[C@@H]1c1ccc(F)cc1 [Talazoparib] | 0 DSS | 0.4 DSS | 0 DSS | 0 DSS
35 | CCn1nnc2c(N3CCOCC3)nc(-c3ccc(NC(=O)Nc4ccc(C(=O)N5CCN(C)CC5)cc4)cc3)nc21 [PKI-402] | 1.1 DSS | 9.4 DSS | 0 DSS | 0 DSS
36 | CCN(CC)Cc1ccc2cc(COC(=O)Nc3ccc(C(=O)NO)cc3)ccc2c1 [Givinostat] | 0.9 DSS | 4 DSS | 2.4 DSS | 3.4 DSS
37 | Cc1nc(=O)c2cc(CN(C)c3ccc(C(=O)N[C@@H](CCC(=O)O)C(=O)O)s3)ccc2[nH]1 [Raltitrexed] | 0 DSS | 0 DSS | 0 DSS | 0 DSS
38 | Cc1cc(Nc2cc(N3CCN(C)CC3)nc(Sc3ccc(NC(=O)C4CC4)cc3)n2)n[nH]1 [Tozasertib] | 0 DSS | 3 DSS | 1.6 DSS | 0.3 DSS
